Data reported in ChEMBL document CHEMBL1201862, “PubChem BioAssay data set” (2004).
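Interpolation was linear, between the two tested concentrations surrounding the appropriate level; five concentrations were tested over 48 hours in 96-well plates. At the GI50, growth is halved.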 Calls of active or inactive are those of the source. Rule as the data show it: active = GI50 up to about 1.1 µM and inactive = higher.

Assays:
Assay in all cases: NCI-60 cell line screen, 48 h
786-0 = tested on: 786-0
A498 = tested on: A498
A549 = tested on: A549
ACHN = tested on: ACHN
BT-549 = tested on: BT-549
CAKI-1 = tested on: CAKI-1
CCRF-CEM = tested on: CCRF-CEM
COLO 205 = tested on: COLO 205
DMS-114 = tested on: DMS-114
DMS-273 = tested on: DMS-273
DU-145 = tested on: DU-145
EKVX = tested on: EKVX
HCC 2998 = tested on: HCC 2998
HCT-116 = tested on: HCT-116
HCT-15 = tested on: HCT-15
HL-60 = tested on: HL-60
HOP-62 = tested on: HOP-62
HOP-92 = tested on: HOP-92
HT-29 = tested on: HT-29
Hs-578T = tested on: Hs-578T
IGROV-1 = tested on: IGROV-1
K562 = tested on: K562
KM-20L2 = tested on: KM-20L2
KM12 = tested on: KM12
LOX IMVI = tested on: LOX IMVI
LXFL 529 = tested on: LXFL 529
M14 = tested on: M14
M19-MEL = tested on: M19-MEL
MCF7 = tested on: MCF7
MDA-MB-231 = tested on: MDA-MB-231
MDA-MB-435 = tested on: MDA-MB-435
MDA-N = tested on: MDA-N
MOLT-4 = tested on: MOLT-4
Malme-3M = tested on: Malme-3M
NCI-H226 = tested on: NCI-H226
NCI-H23 = tested on: NCI-H23
NCI-H460 = tested on: NCI-H460
NCI-H522 = tested on: NCI-H522
NCI/ADR-RES = tested on: NCI/ADR-RES
OVCAR-3 = tested on: OVCAR-3
OVCAR-4 = tested on: OVCAR-4
OVCAR-5 = tested on: OVCAR-5
OVCAR-8 = tested on: OVCAR-8
PC-3 = tested on: PC-3
RPMI-8226 = tested on: RPMI-8226
RXF 393 = tested on: RXF 393
RXF 631 = tested on: RXF 631
SF-268 = tested on: SF-268
SF-295 = tested on: SF-295
SF-539 = tested on: SF-539
SK-MEL-28 = tested on: SK-MEL-28
SK-MEL-2 = tested on: SK-MEL-2
SK-MEL-5 = tested on: SK-MEL-5
SK-OV-3 = tested on: SK-OV-3
SN12C = tested on: SN12C
SNB-19 = tested on: SNB-19
SNB-78 = tested on: SNB-78
SR = tested on: SR
SW-620 = tested on: SW-620
T47D = tested on: T47D
TK-10 = tested on: TK-10
U-251 = tested on: U-251
UACC-257 = tested on: UACC-257
UACC-62 = tested on: UACC-62
UO-31 = tested on: UO-31
DLD-1 = tested on: DLD-1
HOP-18 = tested on: HOP-18
SNB-75 = tested on: SNB-75
XF498 = tested on: XF498

NC(=O)c1cc(N2CC2)c([N+](=O)[O-])cc1[N+](=O)[O-] [TRETAZICAR]
GI50 (786-0): > 100 µM (inactive)
GI50 (A498): > 66.7 µM (inactive)
GI50 (A549): > 184 µM (inactive)
GI50 (ACHN): > 100 µM (inactive)
GI50 (BT-549): > 100 µM (inactive)
GI50 (CAKI-1): > 100 µM (inactive)
GI50 (CCRF-CEM): > 100 µM (inactive)
GI50 (COLO 205): > 100 µM (inactive)
GI50 (DMS-114): > 100 µM (inactive)
GI50 (DMS-273): > 100 µM (inactive)
GI50 (DU-145): > 200 µM (inactive)
GI50 (EKVX): > 100 µM (inactive)
GI50 (HCC 2998): > 100 µM (inactive)
GI50 (HCT-116): > 100 µM (inactive)
GI50 (HCT-15): > 145 µM
GI50 (HL-60): > 100 µM (inactive)
GI50 (HOP-62): > 100 µM (inactive)
GI50 (HOP-92): > 100 µM (inactive)
GI50 (HT-29): > 100 µM (inactive)
GI50 (Hs-578T): > 200 µM (inactive)
GI50 (IGROV-1): > 100 µM (inactive)
GI50 (K562): > 100 µM (inactive)
GI50 (KM-20L2): > 100 µM (inactive)
GI50 (KM12): > 100 µM (inactive)
GI50 (LOX IMVI): > 100 µM (inactive)
GI50 (LXFL 529): > 100 µM (inactive)
GI50 (M14): > 100 µM (inactive)
GI50 (M19-MEL): > 100 µM (inactive)
GI50 (MCF7): > 63.2 µM (inactive)
GI50 (MDA-MB-231): > 200 µM (inactive)
GI50 (MDA-MB-435): > 200 µM (inactive)
GI50 (MDA-N): > 200 µM (inactive)
GI50 (MOLT-4): > 63.2 µM (inactive)
GI50 (Malme-3M): > 129 µM (inactive)
GI50 (NCI-H226): > 100 µM (inactive)
GI50 (NCI-H23): > 100 µM (inactive)
GI50 (NCI-H460): 13 µM (inactive)
GI50 (NCI-H522): > 100 µM (inactive)
GI50 (NCI/ADR-RES): > 200 µM (inactive)
GI50 (OVCAR-3): > 100 µM (inactive)
GI50 (OVCAR-4): > 100 µM (inactive)
GI50 (OVCAR-5): > 100 µM (inactive)
GI50 (OVCAR-8): > 100 µM (inactive)
GI50 (PC-3): > 200 µM (inactive)
GI50 (RPMI-8226): > 100 µM (inactive)
GI50 (RXF 393): > 100 µM (inactive)
GI50 (RXF 631): > 100 µM (inactive)
GI50 (SF-268): > 100 µM (inactive)
GI50 (SF-295): > 100 µM (inactive)
GI50 (SF-539): > 100 µM (inactive)
GI50 (SK-MEL-28): > 200 µM (inactive)
GI50 (SK-MEL-2): > 20 µM (inactive)
GI50 (SK-MEL-5): > 200 µM (inactive)
GI50 (SK-OV-3): > 100 µM (inactive)
GI50 (SN12C): > 100 µM (inactive)
GI50 (SNB-19): > 100 µM (inactive)
GI50 (SNB-78): > 100 µM (inactive)
GI50 (SR): > 200 µM (inactive)
GI50 (SW-620): > 100 µM (inactive)
GI50 (T47D): > 200 µM (inactive)
GI50 (TK-10): > 200 µM (inactive)
GI50 (U-251): > 100 µM (inactive)
GI50 (UACC-257): > 100 µM (inactive)
GI50 (UACC-62): > 100 µM (inactive)
GI50 (UO-31): > 100 µM (inactive)

Cc1ccc(S(=O)(=O)SCc2ccccc2)cc1
GI50 (786-0): 17.3 µM (inactive)
GI50 (A498): 52.8 µM (inactive)
GI50 (A549): 35.8 µM (inactive)
GI50 (ACHN): 32.8 µM (inactive)
GI50 (CAKI-1): 34.9 µM (inactive)
GI50 (CCRF-CEM): 2.33 µM (inactive)
GI50 (COLO 205): 14.3 µM (inactive)
GI50 (DLD-1): 5.31 µM (inactive)
GI50 (DMS-114): 22.2 µM (inactive)
GI50 (DMS-273): 28.1 µM (inactive)
GI50 (EKVX): 43.8 µM (inactive)
GI50 (HCC 2998): 24.2 µM (inactive)
GI50 (HCT-116): 7.6 µM (inactive)
GI50 (HCT-15): 14.1 µM
GI50 (HL-60): 2.44 µM (inactive)
GI50 (HOP-18): > 80.4 µM (inactive)
GI50 (HOP-62): 49.7 µM (inactive)
GI50 (HOP-92): 22.7 µM (inactive)
GI50 (HT-29): 22.9 µM (inactive)
GI50 (IGROV-1): 39.1 µM (inactive)
GI50 (K562): 4.57 µM (inactive)
GI50 (KM-20L2): 22.9 µM (inactive)
GI50 (KM12): 25.7 µM (inactive)
GI50 (LOX IMVI): 18.9 µM (inactive)
GI50 (LXFL 529): 14.3 µM (inactive)
GI50 (M14): 17.9 µM (inactive)
GI50 (M19-MEL): 33.7 µM (inactive)
GI50 (MOLT-4): 2.32 µM (inactive)
GI50 (Malme-3M): 24.4 µM (inactive)
GI50 (NCI-H226): 21 µM (inactive)
GI50 (NCI-H23): 19 µM (inactive)
GI50 (NCI-H460): 28.5 µM (inactive)
GI50 (NCI-H522): 7.91 µM (inactive)
GI50 (OVCAR-3): 20.8 µM (inactive)
GI50 (OVCAR-4): 15.5 µM (inactive)
GI50 (OVCAR-5): 33.2 µM (inactive)
GI50 (OVCAR-8): 15.3 µM (inactive)
GI50 (RPMI-8226): 10.1 µM (inactive)
GI50 (RXF 393): 28.4 µM (inactive)
GI50 (SF-268): 34 µM (inactive)
GI50 (SF-295): 30.3 µM (inactive)
GI50 (SF-539): 23.4 µM (inactive)
GI50 (SK-MEL-28): 50 µM (inactive)
GI50 (SK-MEL-2): 27 µM (inactive)
GI50 (SK-MEL-5): 25.6 µM (inactive)
GI50 (SK-OV-3): 52.2 µM (inactive)
GI50 (SN12C): 20.8 µM (inactive)
GI50 (SNB-19): 29.7 µM (inactive)
GI50 (SNB-75): > 49.3 µM (inactive)
GI50 (SNB-78): 18.5 µM (inactive)
GI50 (SR): 28 µM (inactive)
GI50 (SW-620): 4.31 µM (inactive)
GI50 (TK-10): > 55.7 µM (inactive)
GI50 (U-251): 27 µM (inactive)
GI50 (UACC-257): 31.9 µM (inactive)
GI50 (UACC-62): 29.4 µM (inactive)
GI50 (UO-31): > 92.5 µM (inactive)
GI50 (XF498): 35.5 µM (inactive)

O=C1[C@@H]2C(c3ccc(Br)cc3)=NO[C@@H]2C(=O)N1c1ccc(Cc2ccc(N3C(=O)[C@H]4C(c5ccc(Br)cc5)=NO[C@H]4C3=O)cc2)cc1
GI50 (A498): 0.0139 µM (active)
GI50 (ACHN): > 40 µM (inactive)
GI50 (DMS-273): > 40 µM (inactive)
GI50 (HCT-116): > 40 µM (inactive)
GI50 (HCT-15): > 40 µM
GI50 (HOP-92): > 40 µM (inactive)
GI50 (RXF 631): > 40 µM (inactive)
GI50 (SN12C): > 40 µM (inactive)
GI50 (SR): 19.1 µM (inactive)
GI50 (TK-10): 16.9 µM (inactive)

C=CCN(N=O)C(=O)N(CCCC(NC(C)=O)C(=O)NCc1ccccc1)Cc1ccccc1 (centres undefined)
GI50 (786-0): 80.5 µM (inactive)
GI50 (A498): 99.3 µM (inactive)
GI50 (A549): 61.9 µM (inactive)
GI50 (ACHN): 54.7 µM (inactive)
GI50 (CAKI-1): 30.5 µM (inactive)
GI50 (CCRF-CEM): 28.2 µM (inactive)
GI50 (COLO 205): 90.4 µM (inactive)
GI50 (DMS-114): 36.9 µM (inactive)
GI50 (DMS-273): 95.7 µM (inactive)
GI50 (EKVX): 58.2 µM (inactive)
GI50 (HCT-15): 73.8 µM
GI50 (HL-60): 19.6 µM (inactive)
GI50 (HOP-62): > 100 µM (inactive)
GI50 (HT-29): 24.2 µM (inactive)
GI50 (IGROV-1): > 100 µM (inactive)
GI50 (K562): 37 µM (inactive)
GI50 (KM-20L2): 42.2 µM (inactive)
GI50 (KM12): 42.4 µM (inactive)
GI50 (LOX IMVI): 46.9 µM (inactive)
GI50 (LXFL 529): 46.1 µM (inactive)
GI50 (M14): 38.4 µM (inactive)
GI50 (M19-MEL): 44.4 µM (inactive)
GI50 (MOLT-4): 16.9 µM (inactive)
GI50 (Malme-3M): 98.4 µM (inactive)
GI50 (NCI-H23): > 100 µM (inactive)
GI50 (NCI-H460): 55.8 µM (inactive)
GI50 (NCI-H522): 21.4 µM (inactive)
GI50 (OVCAR-3): 31 µM (inactive)
GI50 (OVCAR-4): 36.1 µM (inactive)
GI50 (OVCAR-5): > 100 µM (inactive)
GI50 (OVCAR-8): 67.3 µM (inactive)
GI50 (RPMI-8226): 18.2 µM (inactive)
GI50 (RXF 393): 42.2 µM (inactive)
GI50 (RXF 631): 47.2 µM (inactive)
GI50 (SF-268): 62.2 µM (inactive)
GI50 (SF-295): 38.5 µM (inactive)
GI50 (SF-539): 37.2 µM (inactive)
GI50 (SK-MEL-28): 79.4 µM (inactive)
GI50 (SK-MEL-2): > 100 µM (inactive)
GI50 (SK-MEL-5): 31.1 µM (inactive)
GI50 (SK-OV-3): > 100 µM (inactive)
GI50 (SN12C): 67.6 µM (inactive)
GI50 (SNB-19): 82.6 µM (inactive)
GI50 (SNB-75): 39 µM (inactive)
GI50 (SW-620): 61.4 µM (inactive)
GI50 (TK-10): 87.1 µM (inactive)
GI50 (U-251): 78.7 µM (inactive)
GI50 (UACC-257): 57.7 µM (inactive)
GI50 (UACC-62): 49.8 µM (inactive)
GI50 (UO-31): 33.1 µM (inactive)
GI50 (XF498): 36.3 µM (inactive)
